Like-named read-outs stand apart in the source and are kept apart here.
What was measured:
[1] = molecular target: T1, soluble guanylate cyclase (sGC) (Homo sapiens, UniProt Q02108+Q02153); test: sGC-HEK-cGMP assay (run with SNP incubation); format: cell-based; conditions: for Emax: 10 μM SNP, 100% = 30 μM BAY 41-2272 with 10 μM SNP, read-out: HEK assay Emax-unconstrained (Percent); for HEK MEC-10: concentration that would elicit 10% of the Emax in the presence of 10 μM SNP; for EC50: in the presence of 10 μM SNP
T1 construct: endogenously expressing soluble guanylate cyclase (sGC); endogenous in cells; host or cells: HEK293
T1 sequence (Q02153 1-619): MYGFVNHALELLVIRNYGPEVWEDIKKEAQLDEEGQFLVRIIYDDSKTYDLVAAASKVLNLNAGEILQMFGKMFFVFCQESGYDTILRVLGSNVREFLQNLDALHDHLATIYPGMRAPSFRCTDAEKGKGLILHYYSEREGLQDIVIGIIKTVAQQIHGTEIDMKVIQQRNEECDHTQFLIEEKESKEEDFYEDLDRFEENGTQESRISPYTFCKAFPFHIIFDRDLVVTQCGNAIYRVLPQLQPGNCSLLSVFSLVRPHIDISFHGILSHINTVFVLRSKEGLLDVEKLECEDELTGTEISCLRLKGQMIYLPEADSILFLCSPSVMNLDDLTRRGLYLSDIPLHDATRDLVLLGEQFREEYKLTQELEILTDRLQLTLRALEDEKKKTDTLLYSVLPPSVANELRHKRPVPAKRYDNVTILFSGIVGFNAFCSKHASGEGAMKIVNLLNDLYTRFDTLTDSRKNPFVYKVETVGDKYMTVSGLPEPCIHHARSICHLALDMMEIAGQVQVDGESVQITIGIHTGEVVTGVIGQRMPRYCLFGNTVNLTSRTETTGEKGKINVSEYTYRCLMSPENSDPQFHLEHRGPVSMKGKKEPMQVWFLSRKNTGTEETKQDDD
T1 sequence (Q02108 1-690): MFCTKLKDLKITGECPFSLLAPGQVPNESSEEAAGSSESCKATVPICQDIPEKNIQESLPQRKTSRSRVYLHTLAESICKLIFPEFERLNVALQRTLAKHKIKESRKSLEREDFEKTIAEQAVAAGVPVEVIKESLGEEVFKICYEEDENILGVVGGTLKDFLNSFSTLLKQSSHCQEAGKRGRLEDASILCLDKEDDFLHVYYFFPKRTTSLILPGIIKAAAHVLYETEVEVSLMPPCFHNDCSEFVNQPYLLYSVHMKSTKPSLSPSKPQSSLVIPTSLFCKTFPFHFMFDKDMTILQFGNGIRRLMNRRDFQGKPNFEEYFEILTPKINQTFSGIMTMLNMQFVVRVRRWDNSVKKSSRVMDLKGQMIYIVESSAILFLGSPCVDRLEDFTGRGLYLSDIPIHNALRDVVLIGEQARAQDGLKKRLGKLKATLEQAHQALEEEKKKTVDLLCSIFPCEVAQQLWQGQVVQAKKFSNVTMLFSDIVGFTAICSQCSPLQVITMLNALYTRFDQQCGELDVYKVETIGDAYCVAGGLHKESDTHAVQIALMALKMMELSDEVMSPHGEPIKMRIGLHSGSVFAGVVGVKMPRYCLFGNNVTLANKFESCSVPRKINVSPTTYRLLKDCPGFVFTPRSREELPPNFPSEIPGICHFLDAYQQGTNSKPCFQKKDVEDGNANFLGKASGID
Summary of the method: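 HEK293 cells with endogenous sGC were pre-treated 15 min at 37 °C with 0.5 mM IBMX, then exposed to test compound plus sodium nitroprusside for 10 min at 37 °C. Cells were lysed in 0.1 M HCl (4 °C, 30 min), and cGMP was quantified by LC/MS against a standard curve. EC50 values came from concentration-response curves.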

[2] = molecular target: T2, Human soluble guanylate cyclase enzyme (hsGC) (Homo sapiens, UniProt Q02108+Q02153); test: Purified human sGC enzyme activity assay (without SNP); format: biochemical; conditions: compound at 30 μM, absence of SNP, fold over DMSO control
T2 construct: purchased Enzo Inc. ALX-201-177
T2 sequence (Q02153 1-619): T1 sequence (Q02153 1-619)
T2 sequence (Q02108 1-690): T1 sequence (Q02108 1-690)
Summary of the method: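 Purified human sGC (5 ng) in 0.1 M Tris pH 8.0, 2 mM DTT, 2 mM MgCl2, 300 μM GTP, 1 mM IBMX, with compound at 10 or 30 μM final, 30 min at 37° C.; methanol-stopped. cGMP quantified against a standard curve; specific activity expressed as fold-change over DMSO control.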

[3] = molecular target: T2, Human soluble guanylate cyclase enzyme (hsGC); test: Purified human sGC enzyme synergy assay in the presence of 1 μM sodium nitroprusside (SNP); format: biochemical; conditions: compound at 30 μM, presence of 1 μM SNP
Summary of the method: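 Purified hsGC (5 ng) incubated 30 min at 37 °C with compound (10 or 30 μM final) in Tris pH 8.0, 300 μM GTP, 1 mM IBMX, 2 mM MgCl2, with or without 1 μM SNP; stopped with cold methanol. cGMP quantified against standard curve; specific activity expressed as fold-change over DMSO control.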

[4] = Table 3B, top of concentration-response curve not fitted to 100%
[5] = Table 3E, read-out: HEK assay EC50
[6] = top of concentration-response curve not fitted to 100%, Table 3E, read-out: HEK assay EC50-unconstrained
[7] = Table 3C, top of concentration-response curve not fitted to 100%
[8] = Table 3F, read-out: HEK assay EC50
[9] = top of concentration-response curve not fitted to 100%, Table 3F, read-out: HEK assay EC50-unconstrained

Row | Structure (SMILES) | Emax [1, 4] [%] | HEK MEC-10 ([1]; Table 3E) | EC50 [1, 5] [µM] | EC50 [1, 6] [µM] | Enzyme Activity (increase at 30 μM without SNP) ([2]; Table 5B) | Enzyme Activity (increase at 30 μM with SNP) ([3]; Table 5B) | Emax [1, 7] [%] | HEK MEC-10 ([1]; Table 3F) | EC50 [1, 8] [µM] | EC50 [1, 9] [µM] | Enzyme Activity (increase at 30 μM without SNP) ([2]; Table 5C) | Enzyme Activity (increase at 30 μM with SNP) ([3]; Table 5C)
1 | CC(=O)Nc1cnc(-c2cc(-c3ccon3)n(Cc3cccc(F)c3F)n2)nc1N [Compound 80] | 40 to 60 | C (0.1 to <1 μM) | 40 to 60 | 0.01 to 0.5 | D (10 or <20 fold increase) | E (20 to 30 fold increase) | – | – | – | – | – | –
2 | O=c1ccnc(-c2cc(-c3ccon3)n(Cc3cccc(Cl)c3F)n2)[nH]1 [Compound 81] | 40 to 60 | C (0.1 to <1 μM) | 40 to 60 | 1 to 5 | C (5 to <10 fold increase) | D (10 or <20 fold increase) | – | – | – | – | – | –
3 | Oc1ccnc(-c2cc(-c3ccon3)n(Cc3cccc(F)c3F)n2)n1 [Compound 84] | 60 to 80 | B (0.01 to <0.1 μM) | 60 to 100 | 1 to 5 | C (5 to <10 fold increase) | D (10 or <20 fold increase) | – | – | – | – | – | –
4 | O=c1[nH]c(-c2cc(-c3ccon3)n(Cc3ccccc3F)n2)nc(F)c1C(F)(F)F [Compound 85, 6-fluoro-2-(1-(2-fluorobenzyl)-5-(isoxazol-3-yl)-1H-pyrazol-3-yl)-5-(trifluoromethyl)pyrimidin-4(3H)-one] | 40 to 60 | – | – | 0.01 to 0.5 | C (5 to <10 fold increase) | E (20 to 30 fold increase) | – | – | – | – | – | –
5 | Cc1cccc(Cn2nc(-c3ncc(F)c(O)n3)cc2-c2ccon2)c1F [Compound 86] | 60 to 80 | – | – | 1 to 5 | C (5 to <10 fold increase) | D (10 or <20 fold increase) | – | – | – | – | – | –
6 | Oc1nc(-c2cc(-c3ccoc3)n(Cc3ccccc3F)n2)ncc1F [Compound 87] | 40 to 60 | – | – | 0.01 to 0.5 | D (10 or <20 fold increase) | E (20 to 30 fold increase) | – | – | – | – | – | –
7 | Nc1nc(-c2cc(-c3ccon3)n(Cc3cccc(F)c3F)n2)ncc1NC(=O)c1ccc(F)cc1 [Compound 88] | 80 to 100 | – | – | 1 to 5 | F (>30 fold increase) | E (20 to 30 fold increase) | – | – | – | – | – | –
8 | CC1(C)C(=O)Nc2nc(-c3cc(-c4ccon4)n(Cc4ccccc4F)n3)nc(N)c21 [Compound 99, 4-amino-2-(1-(2-fluorobenzyl)-5-(isoxazol-3-yl)-1H-pyrazol-3-yl)-5,5-dimethyl-5H-pyrrolo[2,3-d]pyrimidin-6(7H)-one] | – | – | – | – | – | – | 40 to 60 | B (0.01 to <0.1 μM) | < 20 | 0.01 to 0.5 | D (10 or <20 fold increase) | D (10 or <20 fold increase)
9 | CC1(C)C(=O)Nc2nc(-c3cc(-c4ccon4)n(Cc4ccccc4F)n3)ncc21 [Compound 100] | – | – | – | – | – | – | 60 to 80 | C (0.1 to <1 μM) | < 20 | 0.5 to 1 | D (10 or <20 fold increase) | F (>30 fold increase)
10 | Cn1cnc2nc(-c3cc(-c4ccon4)n(Cc4ccccc4F)n3)ncc21 [Compound 109] | – | – | – | – | – | – | 40 to 60 | D (1 to <10 μM) | 40 to 60 | 10 to 50 | B (2 to <5 fold increase) | B (2 to <5 fold increase)
11 | Fc1ccccc1Cn1nc(-c2ncc3[nH]cnc3n2)cc1-c1ccon1 [Compound 110] | – | – | – | – | – | – | 80 to 100 | C (0.1 to <1 μM) | < 20 | 1 to 5 | D (10 or <20 fold increase) | D (10 or <20 fold increase)
12 | Cn1[nH]c2nc(-c3cc(-c4ccon4)n(Cc4ccccc4F)n3)ncc2c1=O [Compound 112] | – | – | – | – | – | – | 60 to 80 | E (10 to 50 μM) | 60 to 100 | 10 to 50 | A (no increase to <2 fold increase) | B (2 to <5 fold increase)
13 | Fc1ccccc1Cn1nc(-c2ncc3cn[nH]c3n2)cc1-c1ccon1 [Compound 113] | – | – | – | – | – | – | 20 to 40 | C (0.1 to <1 μM) | 20 to 40 | 0.01 to 0.5 | C (5 to <10 fold increase) | D (10 or <20 fold increase)
14 | CC(=O)Nc1n[nH]c2nc(-c3cc(-c4ccon4)n(Cc4ccccc4F)n3)ncc12 [Compound 114] | – | – | – | – | – | – | 60 to 80 | A (0.001 to <0.01 μM) | < 20 | 0.01 to 0.5 | D (10 or <20 fold increase) | E (20 to 30 fold increase)
15 | NC1=NNC2NC(c3cc(-c4ccon4)n(Cc4ccccc4F)n3)=NC=C12 (stereo not shown) [Compound 118] | – | – | – | – | – | – | 80 to 100 | B (0.01 to <0.1 μM) | < 20 | 0.5 to 1 | C (5 to <10 fold increase) | E (20 to 30 fold increase)

Source: patent US20150342954A1, “2-BENZYL, 3-(PYRIMIDIN-2-YL) SUBSTITUTED PYRAZOLES USEFUL AS SGC STIMULATORS” (IRONWOOD PHARMACEUTICALS, INC., priority 2011, published 2015)
